Assays:
[1] = Fluorescence spectral test (PTI QM4 fluorescence spectrometer); type: physicochemical; details: different dyes in chloroform solution
Text: (§1) The following data are the spectral test data of compound 3d in different solvents (UV-visible data are taken from Shimadzu UV2600 UV-visible spectrometer and fluorescence data are taken from PTI QM4 fluorescence spectrometer):
(§2) The following data are the spectral test data of different dyes in chloroform solution: […]

[2] = UV-visible absorption spectral test (Shimadzu UV2600 UV-visible spectrometer); type: physicochemical; details: different dyes in chloroform solution
Text: as §1, §2

Maximum emission wavelength [1] | Extinction coefficient [2] | Maximum absorption wavelength [2] | SMILES
804 nm | 131000 cm^−1M^−1 | 779 nm | Cc1ccccc1C1=c2cc3c(cc2C2(c4ccccc4Oc4ccccc42)c2cc4cc(O)ccc4cc21)=CC(=O)C=C3 [Compound 4b]
864 nm | 217000 cm^−1M^−1 | 836 nm | CCN(CC)c1ccc2cc3c(cc2c1)C1(c2ccccc2Oc2ccccc21)c1cc2c(cc1=C3c1ccccc1C)C=CC(=[N+](CC)CC)C=2 [Compound 1a]

Reference: patent publication US10351706B2, “Near-infrared fluorescent dyes and uses thereof” (East China University of Science and Technology, priority 2015, dated 2019)
